Literature values, collected in patent US20020015745A1, “Process for enhancing immune response in canines using a dietary composition including garlic” (priority 2000, published 2002).

System: human prostate carcinoma LNCaP cells
Details: in culture

SMILES: C=CCSSC[C@H](N)C(=O)O [S-allylmercaptocysteine]
- growth of human prostate carcinoma LNCaP cells: reduce the growth
